# Laboratory results as given in US9486434B2, “Method for delivery and use of isothiocyanates for prophylaxis and/or therapy of bladder cancer” (Health Research Inc., priority 2010, dated 2016).
# * marks the point of attachment. Cbz = O=C(OCc1ccccc1)*; CH2F = FC*
# How the values were obtained:
# [1] = test system: human bladder cancer UM-UC-3 cells; test: MTT cell growth and proliferation assay, UM-UC-3 cells; format: cell-based; settings: sinigrin by itself, without myrosinase; result not shown
# Procedure: (§1) FIG. 3. The effect of AITC on cell survival and proliferation. AITC was evaluated at the indicated concentrations in human bladder cancer UM-UC-3 cells, rat bladder cancer AY-27 cells, and normal human bladder epithelial cells (HUC). A. Cell growth inhibition, measured by MTT assay, 72-h AITC treatment. IC50 was calculated from nonlinear regression curve fit. B. Cell cycle arrest (□, subG1; ? , G1; ? , 5; ▪, G2/M), measured by flow cytometry, 24 h AITC treatment. C. Apoptosis induction, measured by an ELISA assay, 24 h AITC treatment. Mean±SE, n=3-6), *P<0.05.
# (§2) FIG. 10. The effect of NAC-AITC on cell survival and proliferation. NAC-AITC was evaluated in both UM-UC-3 cells and AY-27 cells. (A) Chemical structures of AITC and NAC-AITC. (B) Cell growth and proliferation, measured by 3-([…])-2,5-diphenyltetrazolium bromide assay, 72 h treatment with AITC or NAC-AITC at indicated concentrations. IC50 was calculated from the non-linear regression curve fit. (C) Apoptosis, measured by an enzyme-linked immunosorbent assay, 24 h NAC-AITC treatment at 15 µM. (D) Cell cycle (open bars, G1; shaded bars, S; closed bars, G2/M), measured by flow cytometry, 24 h NAC-AITC treatment at 15 μM. *P<, 0.005, compared with control.
# (§3) Assays for cell proliferation, cell cycle arrest and apoptosis. To determine the antiproliferative activity of NAC-AITC, AY-27 cells were grown in 96-well microtiter plates ([…] with 0.15 ml medium per well) for 24 h and then grown for 72 h in fresh medium (0.2 ml/well) containing a series of concentrations of NAC-AITC or solvent. Cell growth was measured at the end of treatment using the 3-([…])-2,5-diphenyltetrazolium bromide assay, from which the half maximal inhibitory concentration (IC50) of NAC-AITC was calculated. AITC was also evaluated for comparison.
# [2] = test system: orthotopic AY-27 bladder tumor; test: Orthotopic rat bladder cancer model; format: in vivo, rat (female F344); settings: sinigrin
# Excerpt: FIG. 6. […] Female F344 rats were inoculated intravesically with bladder cancer AY-27 cells to initiate development of orthotopic bladder tumor. Oral administration of AITC at 0, 10, 25, 50 and 300 micromols/kg once daily was started 1 day after AY-27 cell inoculation and ended 3 weeks later. The number of rats per group varied from 6 to 33; some of the data, particularly the control group (n=33) and the group treated with the lowest dose of AITC (n=23), were pooled from several experiments. A. The initial and final body weights. B. The weights of bladder tumors. […] C. Percentage of bladders where the tumor invaded the muscle tissue. D. H/E staining of the normal rat bladder wall (D1), a superficial rat bladder tumor (D2), and a rat bladder tumor that invaded the muscle layer (D3).
# FIG. 8. […] Female F344 rats were inoculated with AY-27 cells intravesically via a urethra catheter to initiate development of orthotopic bladder cancer. Oral administration of MSP-1 of vehicle (water) once daily was started 1 day after cancer cell inoculation and ended 3 weeks later. The number of rats per group varied from 11-29. A. Initial (□) and final (▪) body weights. […] Each value in A and B is mean±SEM. C. Percentage of bladder where the tumor invaded the muscle tissue. D. The effects of MSP-1 on selected anticancer targets in UM-UC-3 cells (in vitro), AY-27 cells (in vitro) and AY-27 tumors (in vivo). […] The bladder tumors were removed from rats treated with MSP-1 at the sinigrin doses of 9 or 90 micromols/kg once daily for 3 weeks, started 1 day after cancer cell inoculation. Cell lysates and tumor homogenates were analyzed by Western blotting, using GAPDH as a loading control.
# FIG. 9. […] Female F344 rats were inoculated with bladder cancer AY-27 cells to initiate development of orthotopic bladder tumor. Oral administration of the powder (sinigrin and glucoraphanin: each at 10 micromols/kg) once daily was started 1 day after AY-27 cell inoculation and ended 3 weeks later. The number of rats per group was 9-10. Each value is mean±SE.
# FIG. 12. […] Bladder cancer was initiated in female F344 rats by orthotopic inoculation of bladder cancer AY-27 cells. Oral administration of NAC-AITC at 10 μmmol/kg body wt once daily was started 1 day after cancer cell inoculation and ended 3 weeks later. There were 23 rats in the control group and 15 rats in the treatment group. (A) The initial (open bars) and final (closed bars) body weight. (B) Bladder tumor weight. Each value is a mean±SE. (C) Percentage of bladders where the tumor invaded the muscle tissue.
# AITC was evaluated in an orthotopic rat bladder cancer model. […] Daily oral administration of AITC was initiated one day after instillation of AY-27 cells and continued for 3 weeks. AITC was evaluated at 4 dose levels: 10, 25, 50 and 300 micromols/kg. […] FIG. 6D depicts representative images of normal rat bladder wall (D1), a superficial AY-27 rat bladder tumor (D2), and a muscle-invasive AY-27 rat bladder tumor (D3).
# A syngeneic orthotopic rat bladder cancer model.
# [3] = Conversion of sinigrin to AITC in vivo; settings: rat
# [4] = test system: rat bladder cancer AY-27 cells; test: MTT cell growth and proliferation assay, AY-27 cells; format: cell-based; settings: sinigrin by itself, without myrosinase; result not shown
# Procedure: as §1, §2, §3
# [5] = test system: α-tubulin, β-tubulin, γ-tubulin, caspase-9, caspase-3, VEGF in UM-UC-3 cells; test: Western blotting in UM-UC-3 cells (tubulins, caspases, VEGF); format: cell-based, human; settings: co-treatment, 20 microM Z-LEHD-FMK
# Procedure: (§4) FIG. 4. Effect of AITC on mitosis, tubulin expression and apoptosis in human bladder cancer UM-UC-3 cells. Cells were treated with vehicle or AITC for 24 h (each numerical value is mean±SD). A. Flow cytometry analysis for cell cycle arrest. B. Wright-Giemsa staining for counting mitotic figures. Arrows point to cells in mitosis or mitotic catastrophe. C. Immunofluorescent staining of microtubules (green color) and DNA staining with DAPI (blue color). D. Western blotting of tubulins (GAPDH as a loading control). E. Loss of mitochondrial transmembrane potential (Δψm) measured by flow cytometry. F. Western blotting of caspase-9 and caspase-3 (GAPDH as a loading control). G. Apoptotic cells (TUNEL cells) measured by flow cytometry. Cells in F and G were co-treated with or without 20 microM Z-LEHD-FMK (a caspase-9 inhibitor).
# FIG. 8. Inhibition of bladder cancer development by MSP-1. Female F344 rats were inoculated with AY-27 cells intravesically via a urethra catheter to initiate development of orthotopic bladder cancer. Oral administration of MSP-1 of vehicle (water) once daily was started 1 day after cancer cell inoculation and ended 3 weeks later. The number of rats per group varied from 11-29. A. Initial (□) and final (▪) body weights. B. Tumor weight was calculated by subtracting the average normal bladder weight from tumor-bearing bladder weight. *P<0.05. Each value in A and B is mean±SEM. C. Percentage of bladder where the tumor invaded the muscle tissue. D. The effects of MSP-1 on selected anticancer targets in UM-UC-3 cells (in vitro), AY-27 cells (in vitro) and AY-27 tumors (in vivo). The cells were treated with MSP-1 at the sinigrin concentrations of 13 and 26 microM for 24 h. The bladder tumors were removed from rats treated with MSP-1 at the sinigrin doses of 9 or 90 micromols/kg once daily for 3 weeks, started 1 day after cancer cell inoculation. Cell lysates and tumor homogenates were analyzed by Western blotting, using GAPDH as a loading control.
# Western blot analysis. […]
# UM-UC-3 cells = test: Mitochondria-mediated apoptosis in UM-UC-3 cells (Δψm, cytochrome c, TUNEL); format: cell-based, human; settings: co-treatment, 20 microM Z-LEHD-FMK
# Procedure: as §4
# [6] = test system: cyclooxygenase-2 (Cox-2) in human bladder cancer HT1376 cells; test: Western blot analysis of Cox-2 in HT1376 cells; format: cell-based; settings: 24 h, cells overexpressing Cox-2
# Procedure: FIG. 5. The effects of AITC and SF on cyclooxygenase-2 (Cox-2) expression in human bladder cancer cells. Human bladder cancer HT1376 cells that over express Cox-2 were treated with AITC or SF at the indicated concentrations for 24 h and then harvested for Western blot analysis of Cox-2. GAPDH is used as a loading control.
# [7] = reference [18]; cited from earlier work
compound,measurement,setting,value
"C=CCC(=NOS(=O)(=O)O)S[C@@H]1O[C@H](CO)[C@@H](O)[C@H](O)[C@H]1O (stereo in doubt) [sinigrin, reference compound]",activity in vitro on bladder cancer cell line,[1],inactive
same,efficacy in the orthotopic rat bladder cancer model,[2],ineffective
same,sinigrin converted to AITC in vivo,[3],3-5%
same,activity in vitro on bladder cancer cell line,[4],inactive
Cbz-LEHD-CH2F [reference compound],effect on AITC-caused activation of the caspases,[5],completely blocked
same,effect on AITC-caused formation of TUNEL-positive cells,UM-UC-3 cells,completely blocked
"C[S+]([O-])CCCCN=C=S (centres unmarked) [SF, sulforaphane]",effect on Cox-2 expression,[6],strongly down regulates
same,delivery to bladder tissue,[7],selectively delivered to bladder tissue through urinary excretion
